One assay deals with circulating lymphocytes. In words: Assessment of in vivo efficacy: circulating lymphocytes after oral administration. The arrangement: species or system Wistar rats. The note with it: Rattus norvegicus, Lymphocyte, po, 6 h, read-out: Lymphocyte counts. Here is the method: Assessment of In vivo Efficacy
The efficacy of the compounds of formula (I) is assessed by measuring the circulating lymphocytes after oral administration of 3 to 30 mg/kg of a compound of formula (I) to normotensive male Wistar rats. The animals are housed in climate-controlled conditions with a 12 h-light/dark cycle, and have free access to normal rat chow and drinking water. Blood is collected before and 3, 6 and 24 h after drug administration. Full blood is subjected to hematology using Advia Hematology system (Bayer Diagnostics, Zurich, Switzerland).
All data are presented as mean±SEM. Statistical analyses are performed by analysis of variance (ANOVA) using Statistica (StatSoft) and the Student-Newman-Keuls procedure for multiple comparisons. The null hypothesis is rejected when p<0.05.
Consider `CCc1cc(-c2noc(-c3cc(C)nc(NC(C)C)n3)n2)cc(C)c1OC[C@@H](O)CO` [Example 59, (S)-3-{2-ethyl-4-[5-(2-isopropylamino-6-methyl-pyrimidin-4-yl)-[1,2,4]oxadiazol-3-yl]-6-methyl-phenoxy}-propane-1,2-diol], for which the change in vivo at 10 mg/kg was -69 ± 2%.
`COc1cc(-c2noc(-c3cc(C)nc(NC(C)C)n3)n2)cc(C)c1OC[C@@H](O)CNC(=O)CO` [Example 51, 2-hydroxy-N—((S)-2-hydroxy-3-{4-[5-(2-isopropylamino-6-methyl-pyrimidin-4-yl)-[1,2,4]oxadiazol-3-yl]-2-methoxy-6-methyl-phenoxy}-propyl)-acetamide]: the change in vivo at 10 mg/kg was -61 ± 2%.

Staying with this assay, now noted: Rattus norvegicus, Lymphocyte; 6 h after oral administration of 10 mg/kg to normotensive male Wistar rats, compared to animals treated with vehicle only; mean±SEM; read-out: Lymphocyte counts.
Regarding `CCc1cc(-c2noc(-c3cc(C)nc(N(CC)CC)n3)n2)cc(C)c1OC[C@@H](O)CNC(=O)CO` [Example 3, N—((S)-3-{4-[5-(2-Diethylamino-6-methyl-pyrimidin-4-yl)-[1,2,4]oxadiazol-3-yl]-2-ethyl-6-methyl-phenoxy}-2-hydroxy-propyl)-2-hydroxy-acetamide], the change in vivo at 10 mg/kg was -70 ± 2%.
As to `CCNc1nc(C)cc(-c2nc(-c3cc(C)c(OCC(O)CO)c(C)c3)no2)n1` (racemic) [Example 16, rac-3-{4-[5-(2-Ethylamino-6-methyl-pyrimidin-4-yl)-[1,2,4]oxadiazol-3-yl]-2,6-dimethyl-phenoxy}-propane-1,2-diol], the change in vivo at 10 mg/kg is -74 ± 1%.
In the case of `CCN(CC)c1nc(C)cc(-c2nc(-c3cc(C)c(OCC(O)CNC(=O)CO)c(C)c3)no2)n1` (racemic) [Example 10, rac-N-(3-{4-[5-(2-Diethylamino-6-methyl-pyrimidin-4-yl)-[1,2,4]oxadiazol-3-yl]-2,6-dimethyl-phenoxy}-2-hydroxy-propyl)-2-hydroxy-acetamide], the change in vivo at 10 mg/kg was -50 ± 2%.
As for `CCc1cc(-c2noc(-c3cc(C)nc(N(C)CC(C)C)n3)n2)cc(C)c1OC[C@@H](O)CNC(=O)CO` [Example 29, N—[(S)-3-(2-ethyl-4-{5-[2-(isobutyl-methyl-amino)-6-methyl-pyrimidin-4-yl]-[1,2,4]oxadiazol-3-yl}-6-methyl-phenoxy)-2-hydroxy-propyl]-2-hydroxy-acetamide], the change in vivo at 10 mg/kg is -73 ± 2%.
With `CCc1cc(-c2noc(-c3cc(C)nc(NCC4CC4)n3)n2)cc(C)c1OC[C@@H](O)CNC(=O)CO` [Example 32, N—[(S)-3-(4-{5-[2-(cyclopropylmethyl-amino)-6-methyl-pyrimidin-4-yl]-[1,2,4]oxadiazol-3-yl}-2-ethyl-6-methyl-phenoxy)-2-hydroxy-propyl]-2-hydroxy-acetamide], the change in vivo at 10 mg/kg was -58 ± 1%.
As for `CCNc1nc(CC)cc(-c2nc(-c3cc(C)c(OC[C@@H](O)CNC(=O)CO)c(CC)c3)no2)n1` [Example 33, N—((S)-3-{2-ethyl-4-[5-(6-ethyl-2-ethylamino-pyrimidin-4-yl)-[1,2,4]oxadiazol-3-yl]-6-methyl-phenoxy}-2-hydroxy-propyl)-2-hydroxy-acetamide], the change in vivo at 10 mg/kg was -65 ± 2%.
Same read-out and setting: then `CCc1cc(-c2nc(-c3cc(C)nc(NC(C)C)n3)no2)cc(C)c1OC[C@@H](O)CNC(=O)CO` [Example 85, (S)—N-(3-{2-Ethyl-4-[3-(2-isopropylamino-6-methyl-pyrimidin-4-yl)-[1,2,4]oxadiazol-5-yl]-6-methyl-phenoxy}-2-hydroxy-propyl)-2-hydroxy-acetamide], with -68 ± 1%; and `Cc1cc(-c2nc(-c3cc(C)c(OCC(O)CO)c(C)c3)no2)nc(NCC(C)C)n1` (racemic) [Example 20, rac-3-{4-[5-(2-Isobutylamino-6-methyl-pyrimidin-4-yl)-[1,2,4]oxadiazol-3-yl]-2,6-dimethyl-phenoxy}-propane-1,2-diol], with -55 ± 1%.

In another assay the target is recombinant human S1P1 receptor (Homo sapiens, UniProt P21453). The assay can be described thus: GTPγS assay to determine EC50 values. The assay is classed as biochemical. The note with it: 35S-GTPγS binding, membranes of CHO cells expressing recombinant human S1P1 receptor, pH 7.4. Here is the method: GTPγS assay to determine EC50 values
recombinant human S1P1 receptor, sequence (P21453 whole entry): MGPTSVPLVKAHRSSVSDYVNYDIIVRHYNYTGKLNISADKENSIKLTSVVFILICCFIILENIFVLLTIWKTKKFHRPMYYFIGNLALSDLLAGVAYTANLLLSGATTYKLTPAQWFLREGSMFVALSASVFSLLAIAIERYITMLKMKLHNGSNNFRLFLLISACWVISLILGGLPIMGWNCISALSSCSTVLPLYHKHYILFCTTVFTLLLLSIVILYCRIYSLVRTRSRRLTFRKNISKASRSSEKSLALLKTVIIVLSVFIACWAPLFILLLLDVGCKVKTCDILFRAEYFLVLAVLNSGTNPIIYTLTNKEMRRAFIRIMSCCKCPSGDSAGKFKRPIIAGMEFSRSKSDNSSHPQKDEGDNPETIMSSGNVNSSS
GTPγS binding assays are performed in 96 well microtiter plates (Nunc, 442587) in a final volume of 200 μl, using membrane preparations of CHO cells expressing recombinant human S1P1 receptor. Assay conditions are 20 mM Hepes (Fluka, 54461), 100 mM NaCl (Fluka, 71378), 5 mM MgCl2 (Fluka, 63064), 0.1% BSA (Calbiochem, 126609), 1 μM GDP (Sigma, G-7127), 2.5% DMSO (Fluka, 41644), […] ^35S-GTPγS (Amersham Biosciences, SJ1320). The pH is 7.4. Test compounds are dissolved and diluted in 100% DMSO and pre-incubated at room temperature for 30 min in 150 μl of the above assay buffer, in the absence of ^35S-GTPγS. After addition of 50 μl of ^35S-GTPγS, the assay is incubated for 1 h at rt. The assay is terminated by transfer of the reaction mixture to a Multiscreen plate (Millipore, MAHFC1H60) using a cell harvester from Packard Biosciences, and the plates are washed with ice-cold 10 mM Na2HPO4/NaH2PO4 (70%/30%), dried, sealed at the bottom and, after addition of 25 μl MicroScint20 (Packard Biosciences, order#6013621), sealed on the top. Membrane-bound ^35S-GTPγS is measured with a TopCount from Packard Biosciences.
EC50 is the concentration of agonist inducing 50% of the maximal specific ^35S-GTPγS binding. Specific binding is determined by subtracting non-specific binding from maximal binding. Maximal binding is the amount of cpm bound to the Multiscreen plate in the presence of 10 μM of S1P. Non-specific binding is the amount of binding in the absence of an agonist in the assay.
With `Cc1cc(-c2nc(-c3cc(C)c(OCC(O)CO)c(C)c3)no2)nc(NC(C)C)n1` (racemic) [Example 19, rac-3-{4-[5-(2-Isopropylamino-6-methyl-pyrimidin-4-yl)-[1,2,4]oxadiazol-3-yl]-2,6-dimethyl-phenoxy}-propane-1,2-diol], the concentration for a half-maximal effect (EC50) (as a rule, the concentration giving half of the maximal effect) worked out at 2.27 nM.
In the case of `CCc1cc(-c2nnc(-c3cc(C)nc(OCC(C)C)n3)s2)cc(C)c1OC[C@@H](O)CO` [Example 99], the EC50 was 3730 nM.
On the same count and under the same terms, then `CCc1cc(-c2noc(-c3cc(C)nc(N(CC)CC)n3)n2)cc(C)c1OCCN1CCC(C(=O)O)C1` (centres unmarked) [Example 109], with 8.4 nM; and `CCc1cc(-c2noc(-c3cc(C)nc(N(CC)CC)n3)n2)cc(C)c1OC(CO)CO` [Example 100, 2-{4-[5-(2-Diethylamino-6-methyl-pyrimidin-4-yl)-[1,2,4]oxadiazol-3-yl]-2-ethyl-6-methyl-phenoxy}-propane-1,3-diol], with 5.1 nM.
`Cc1cc(-c2nc(-c3cc(C)c(OCC(O)CNC(=O)CO)c(C)c3)no2)nc(NC(C)C)n1` (racemic) [Example 7, rac-N-(3-{4-[5-(2-Isopropylamino-6-methyl-pyrimidin-4-yl)-[1,2,4]oxadiazol-3-yl]-2,6-dimethyl-phenoxy}-2-hydroxy-propyl)-2-hydroxy-acetamide]: the EC50 is 0.88 nM.
For `Cc1cc(-c2nc(-c3cc(C)c(OC[C@@H](O)CO)c(Cl)c3)no2)nc(OC(C)C)n1` [Example 81, (S)-3-{2-chloro-4-[5-(2-isopropoxy-6-methyl-pyrimidin-4-yl)-[1,2,4]oxadiazol-3-yl]-6-methyl-phenoxy}-propane-1,2-diol], the EC50 was 7.4 nM.
The same measure, in the same setting: then `CCc1cc(-c2noc(-c3cc(C)nc(NC4CC4)n3)n2)cc(C)c1OC[C@@H](O)CNC(=O)CO` [Example 31, N—((S)-3-{4-[5-(2-cyclopropylamino-6-methyl-pyrimidin-4-yl)-[1,2,4]oxadiazol-3-yl]-2-ethyl-6-methyl-phenoxy}-2-hydroxy-propyl)-2-hydroxy-acetamide], with 0.17 nM; and `Cc1cc(-c2nc(-c3ccc(CC(O)CNCCO)cc3)no2)nc(NC(C)C)n1` (centres unmarked) [Example 154], with 331 nM; and `CCc1cc(-c2nc(-c3cc(C)nc(N(C)CC(C)C)n3)no2)cc(C)c1OC[C@@H](O)CNC(=O)CO` [Example 86, (S)—N-[3-(2-Ethyl-4-{3-[2-(isobutyl-methyl-amino)-6-methyl-pyrimidin-4-yl]-[1,2,4]oxadiazol-5-yl}-6-methyl-phenoxy)-2-hydroxy-propyl]-2-hydroxy-acetamide], with 5.7 nM.
On the same count and under the same terms, then `CCN(CC)c1nc(C)cc(-c2nc(-c3ccc(CC(=O)N4CC(C(=O)O)C4)cc3)no2)n1` [Example 131], with 44.6 nM.
In the case of `Cc1cc(-c2nc(-c3ccc(C(O)CN)cc3)no2)nc(NC(C)C)n1` (racemic) [Example 144, rac-2-Amino-1-{4-[5-(2-isopropylamino-6-methyl-pyrimidin-4-yl)-[1,2,4]oxadiazol-3-yl]-phenyl}-ethanol], the EC50 stood at 80.3 nM.
For the compound `CCc1cc(-c2noc(-c3cc(CC(C)C)nc(NC)n3)n2)cc(C)c1OC[C@@H](O)CNC(=O)CO` [Example 35, N—((S)-3-{2-ethyl-4-[5-(6-isobutyl-2-methylamino-pyrimidin-4-yl)-[1,2,4]oxadiazol-3-yl]-6-methyl-phenoxy}-2-hydroxy-propyl)-2-hydroxy-acetamide], the concentration for a half-maximal effect (EC50) came out at 1.37 nM.
Take `CCc1cc(-c2noc(-c3cc(C)nc(N(CC)CC)n3)n2)cc(C)c1OCCNC(=O)CN` [Example 112]: the EC50 is 12.5 nM.
As to `CCc1cc(-c2noc(-c3cc(C)nc(NC4CC4)n3)n2)cc(C)c1OC[C@@H](O)CO` [Example 63, (S)-3-{4-[5-(2-cyclopropylamino-6-methyl-pyrimidin-4-yl)-[1,2,4]oxadiazol-3-yl]-2-ethyl-6-methyl-phenoxy}-propane-1,2-diol], the EC50 worked out at 0.25 nM.
With `CCc1cc(-c2noc(-c3cc(C)nc(NCC(C)C)n3)n2)cc(C)c1OC[C@@H](O)CNC(=O)CO` [Example 2, N—((S)-3-{2-Ethyl-4-[5-(2-isobutylamino-6-methyl-pyrimidin-4-yl)-[1,2,4]oxadiazol-3-yl]-6-methyl-phenoxy}-2-hydroxy-propyl)-2-hydroxy-acetamide], the 50% effective concentration (EC50) came out at 1.2 nM.
As for `CCc1cc(-c2noc(-c3cc(C)nc(N(CC)CC)n3)n2)cc(C)c1OCCNCCO` [Example 103], the 50% effective concentration (EC50) stood at 72.1 nM.

The record behind these values is patent publication US8299086B2, “Pyrimidine derivatives” (Actelion Pharmaceuticals Ltd., priority 2007, dated 2012).
